Results reported in patent US20240317743A1, “Solid Forms of BCL-2 Inhibitors, Method of Preparation, and Use Thereof” (BeiGene, Ltd., priority 2021, published 2024).
Converted amounts (≈) assume the structure as drawn. Blank lines part the entries; values can stand above or below the molecule they belong to.

Assays:
Format in all cases: physicochemical
[1] = Physical stability: storage under humidity/temperature, form checked by XRPD
Method: To evaluate the physicochemical stability, store 1˜3 mg of Forms B, S, M, R, F, H and N samples were stored under 25° C./60% RH or 40° C./75% RH conditions for one week (unsealed) or 80° C. condition for 24 hrs (sealed).

[2] = DVS (Method B) water sorption / hygroscopicity; details: 25° C.; for water sorption: at 95% RH
Method: DVS of Form A and U was also measured via an SMS (Surface Measurement Systems) DVS Intrinsic (Method B). The relative humidity at 25° C. was calibrated against deliquescence point of LiCl, Mg(NO3)2, and KCL. Parameters for DVS test are listed as follows. [table]

[3] = Long term and accelerated physical and chemical stability test, impurities by HPLC
Method: Long term and accelerated stability studies were conducted in different physical forms of Compound 1, by storing the samples at 25±2° C./60±5% RH and 40±2° C./75±5% RH conditions for up to 6 months. And, the content of the total impurities of each sample was tested by HPLC.

[4] = Solid form solubility, concentration by HPLC at 24 hours; details: listed as Compound 1 Form A
Method: The solubility of Compound 1 in different physical forms was tested in water, 0.1 N HCl, pH 4.5 acetate buffer and pH 6.8 phosphate buffer. At 24 hours of time point, the concentration of Compound 1 was detected by HPLC.

[5] = Storage at RT, form checked by XRPD overlay
Method: Form K was speculated as a methyl acetate solvate.
Thus, Form L was speculated as a metastable anhydrate/hydrate which could be de-solvated from the wet cake from the solvent system.
(peak) before decomposition (FIG. 16B). According to the integration of ^1H NMR result (FIG. 16C), the theoretical weight of chlorobenzene was calculated as 9.8%, which matched with the TGA weight loss. […] After heating the sample to 140° C., more diffraction peaks disappeared. Combined with the TGA, ^1H NMR data and heating experiment, Form P was speculated as a chlorobenzene solvate.

[6] = 25° C./60% RH, one week, unsealed
[7] = 40° C./75% RH, one week, unsealed
[8] = 25±2° C./60±5% RH and 40±2° C./75±5% RH, up to 6 months

Compound: CC(C)c1ccccc1[C@@H]1CCCN1C1CC2(CCN(c3ccc(C(=O)NS(=O)(=O)c4ccc(NCC5CCC(C)(O)CC5)c([N+](=O)[O-])c4)c(Oc4cnc5[nH]ccc5c4)c3)CC2)C1 (stereo partly drawn) [Form R, 2-((1H-pyrrolo[2,3-b]pyridin-5-yl)oxy)-N-((4-((((1r,4r)-4-hydroxy-4-methylcyclohexyl)methyl)amino)-3-nitrophenyl)sulfonyl)-4-(2-((S)-2-(2-isopropylphenyl)pyrrolidin-1-yl)-7-azaspiro[3.5]nonan-7-yl)benzamide]
form change (XRPD overlay) [1, 6]: no form change was observed
form change (XRPD overlay) [1, 7]: no form change was observed
form change (XRPD overlay) ([1]; 80° C., sealed, 24 hrs): converted to a form which was similar to Form S

Compound: CC(C)c1ccccc1[C@@H]1CCCN1C1CC2(CCN(c3ccc(C(=O)NS(=O)(=O)c4ccc(NCC5CCC(C)(O)CC5)c([N+](=O)[O-])c4)c(Oc4cnc5[nH]ccc5c4)c3)CC2)C1 (stereo partly drawn) [Form F, 2-((1H-pyrrolo[2,3-b]pyridin-5-yl)oxy)-N-((4-((((1r,4r)-4-hydroxy-4-methylcyclohexyl)methyl)amino)-3-nitrophenyl)sulfonyl)-4-(2-((S)-2-(2-isopropylphenyl)pyrrolidin-1-yl)-7-azaspiro[3.5]nonan-7-yl)benzamide]
form change (XRPD overlay) [1, 6]: a mixture of Forms F and B was observed
form change (XRPD overlay) [1, 7]: a mixture of Forms F and B was observed
form change (XRPD overlay) ([1]; 80° C., sealed, 24 hrs): a mixture of Forms F and B was observed

Compound: CC(C)c1ccccc1[C@@H]1CCCN1C1CC2(CCN(c3ccc(C(=O)NS(=O)(=O)c4ccc(NCC5CCC(C)(O)CC5)c([N+](=O)[O-])c4)c(Oc4cnc5[nH]ccc5c4)c3)CC2)C1 (stereo partly drawn) [Form A, 2-((1H-pyrrolo[2,3-b]pyridin-5-yl)oxy)-N-((4-((((1r,4r)-4-hydroxy-4-methylcyclohexyl)methyl)amino)-3-nitrophenyl)sulfonyl)-4-(2-((S)-2-(2-isopropylphenyl)pyrrolidin-1-yl)-7-azaspiro[3.5]nonan-7-yl)benzamide]
water sorption ([2]; listed as Compound 1 form A): 0.4%
hygroscopicity ([2]; listed as Compound 1 form A): slightly hygroscopic
crystal form change [3, 8]: no crystal form and optical purity changes
optical purity change [3, 8]: no crystal form and optical purity changes
change of chemical purity ([3]; 25±2° C./60±5% RH and 40±2° C./75±5% RH, up to 6 months, listed as Compound 1 Form A): no significant change
total content of impurities ([3]; after 6 months at 40±2° C./75±5% RH, listed as Compound 1 Form A): 0.52%
content of solvent EA ([3]; after storage in the stability study): ~8.8 ×10^4 ppm
content of solvent EA ([3]; before storage (initial)): about 9.5 ×10^4 ppm
total content of impurities ([3]; before storage (initial), listed as Compound 1 Form A): 0.40%
solubility ([4]; 0.1 N HCl): 29.36 µg/mL (≈ 33 µM)
solubility ([4]; pH 4.5 acetate buffer): 0.76 µg/mL (≈ 0.854 µM)
solubility ([4]; pH 6.8 phosphate buffer): 0.43 µg/mL (≈ 0.483 µM)
solubility ([4]; water): 0.37 µg/mL (≈ 0.416 µM)

Compound: CC(C)c1ccccc1[C@@H]1CCCN1C1CC2(CCN(c3ccc(C(=O)NS(=O)(=O)c4ccc(NCC5CCC(C)(O)CC5)c([N+](=O)[O-])c4)c(Oc4cnc5[nH]ccc5c4)c3)CC2)C1 (stereo partly drawn) [Form K, 2-((1H-pyrrolo[2,3-b]pyridin-5-yl)oxy)-N-((4-((((1r,4r)-4-hydroxy-4-methylcyclohexyl)methyl)amino)-3-nitrophenyl)sulfonyl)-4-(2-((S)-2-(2-isopropylphenyl)pyrrolidin-1-yl)-7-azaspiro[3.5]nonan-7-yl)benzamide]
form change on storage (XRPD overlay) ([5]; RT, closed HPLC vial, ~5 weeks): converted to Form B of low crystallinity

Compound: CC(C)c1ccccc1[C@@H]1CCCN1C1CC2(CCN(c3ccc(C(=O)NS(=O)(=O)c4ccc(NCC5CCC(C)(O)CC5)c([N+](=O)[O-])c4)c(Oc4cnc5[nH]ccc5c4)c3)CC2)C1 (stereo partly drawn) [Form L, 2-((1H-pyrrolo[2,3-b]pyridin-5-yl)oxy)-N-((4-((((1r,4r)-4-hydroxy-4-methylcyclohexyl)methyl)amino)-3-nitrophenyl)sulfonyl)-4-(2-((S)-2-(2-isopropylphenyl)pyrrolidin-1-yl)-7-azaspiro[3.5]nonan-7-yl)benzamide]
form change on storage ([5]; storage at RT): converted to Form I

Compound: CC(C)c1ccccc1[C@@H]1CCCN1C1CC2(CCN(c3ccc(C(=O)NS(=O)(=O)c4ccc(NCC5CCC(C)(O)CC5)c([N+](=O)[O-])c4)c(Oc4cnc5[nH]ccc5c4)c3)CC2)C1 (stereo partly drawn) [Form P, 2-((1H-pyrrolo[2,3-b]pyridin-5-yl)oxy)-N-((4-((((1r,4r)-4-hydroxy-4-methylcyclohexyl)methyl)amino)-3-nitrophenyl)sulfonyl)-4-(2-((S)-2-(2-isopropylphenyl)pyrrolidin-1-yl)-7-azaspiro[3.5]nonan-7-yl)benzamide]
form change on storage (XRPD comparison) ([5]; RT, ~4 weeks): some of the diffraction peaks disappeared

Now from value to molecule, other results behind:

form change (XRPD overlay) [1, 6]: no form change
form change (XRPD overlay) [1, 7]: no form change
form change (XRPD overlay) ([1]; 80° C., sealed, 24 hrs): no form change
Compound: CC(C)c1ccccc1[C@@H]1CCCN1C1CC2(CCN(c3ccc(C(=O)NS(=O)(=O)c4ccc(NCC5CCC(C)(O)CC5)c([N+](=O)[O-])c4)c(Oc4cnc5[nH]ccc5c4)c3)CC2)C1 (stereo partly drawn) [Form M, 2-((1H-pyrrolo[2,3-b]pyridin-5-yl)oxy)-N-((4-((((1r,4r)-4-hydroxy-4-methylcyclohexyl)methyl)amino)-3-nitrophenyl)sulfonyl)-4-(2-((S)-2-(2-isopropylphenyl)pyrrolidin-1-yl)-7-azaspiro[3.5]nonan-7-yl)benzamide]

form change (XRPD overlay) [1, 6]: no form change
form change (XRPD overlay) [1, 7]: no form change
Compound: CC(C)c1ccccc1[C@@H]1CCCN1C1CC2(CCN(c3ccc(C(=O)NS(=O)(=O)c4ccc(NCC5CCC(C)(O)CC5)c([N+](=O)[O-])c4)c(Oc4cnc5[nH]ccc5c4)c3)CC2)C1 (stereo partly drawn) [Form H, 2-((1H-pyrrolo[2,3-b]pyridin-5-yl)oxy)-N-((4-((((1r,4r)-4-hydroxy-4-methylcyclohexyl)methyl)amino)-3-nitrophenyl)sulfonyl)-4-(2-((S)-2-(2-isopropylphenyl)pyrrolidin-1-yl)-7-azaspiro[3.5]nonan-7-yl)benzamide]
form change (XRPD overlay) ([1]; 80° C., sealed, 24 hrs): an obvious decrease of crystallinity was observed

form change (XRPD overlay) [1, 6]: no form change
form change (XRPD overlay) [1, 7]: no form change
form change (XRPD overlay) ([1]; 80° C., sealed, 24 hrs): no form change
Compound: CC(C)c1ccccc1[C@@H]1CCCN1C1CC2(CCN(c3ccc(C(=O)NS(=O)(=O)c4ccc(NCC5CCC(C)(O)CC5)c([N+](=O)[O-])c4)c(Oc4cnc5[nH]ccc5c4)c3)CC2)C1 (stereo partly drawn) [Form S, 2-((1H-pyrrolo[2,3-b]pyridin-5-yl)oxy)-N-((4-((((1r,4r)-4-hydroxy-4-methylcyclohexyl)methyl)amino)-3-nitrophenyl)sulfonyl)-4-(2-((S)-2-(2-isopropylphenyl)pyrrolidin-1-yl)-7-azaspiro[3.5]nonan-7-yl)benzamide]

water sorption ([2]; listed as Compound 1 Form U): 1.4%
hygroscopicity ([2]; listed as Compound 1 Form U): slightly hygroscopicity
change of chemical purity ([3]; 25±2° C./60±5% RH and 40±2° C./75±5% RH, up to 6 months, listed as Compound 1 Form U): no significant change
total content of impurities ([3]; after 6 months at 40±2° C./75±5% RH, listed as Compound 1 Form U): 0.72%
total content of impurities ([3]; before storage (initial), listed as Compound 1 Form U): 0.40%
Compound: CC(C)c1ccccc1[C@@H]1CCCN1C1CC2(CCN(c3ccc(C(=O)NS(=O)(=O)c4ccc(NCC5CCC(C)(O)CC5)c([N+](=O)[O-])c4)c(Oc4cnc5[nH]ccc5c4)c3)CC2)C1 (stereo partly drawn) [Form U, 2-((1H-pyrrolo[2,3-b]pyridin-5-yl)oxy)-N-((4-((((1r,4r)-4-hydroxy-4-methylcyclohexyl)methyl)amino)-3-nitrophenyl)sulfonyl)-4-(2-((S)-2-(2-isopropylphenyl)pyrrolidin-1-yl)-7-azaspiro[3.5]nonan-7-yl)benzamide]

form change (XRPD overlay) [1, 6]: converted to Form T
form change (XRPD overlay) [1, 7]: converted to Form T
form change (XRPD overlay) ([1]; 80° C., sealed, 24 hrs): converted to Form T
Compound: CC(C)c1ccccc1[C@@H]1CCCN1C1CC2(CCN(c3ccc(C(=O)NS(=O)(=O)c4ccc(NCC5CCC(C)(O)CC5)c([N+](=O)[O-])c4)c(Oc4cnc5[nH]ccc5c4)c3)CC2)C1 (stereo partly drawn) [Form N, 2-((1H-pyrrolo[2,3-b]pyridin-5-yl)oxy)-N-((4-((((1r,4r)-4-hydroxy-4-methylcyclohexyl)methyl)amino)-3-nitrophenyl)sulfonyl)-4-(2-((S)-2-(2-isopropylphenyl)pyrrolidin-1-yl)-7-azaspiro[3.5]nonan-7-yl)benzamide]
